Data as given in US20230151371A1, “POLYPEPTIDES HAVING EPOXY GROUP-REMOVING CATALYTIC ACTIVITY, NUCLEIC ACIDS ENCODING THE POLYPEPTIDES AND USE THEREOF” (priority 2020, published 2023).
Where two headings read alike, the source gives them in different places.

What was measured:
[1] = tested on: pancreatic cancer cell line (PATU8988)
[2] = tested on: human embryonic kidney cell 293-derived line (293T)
[3] = tested on: normal human esophageal epithelial cells (HEECs)

Measured: cell viability (CCK-8, OD450)

3-acetyl-deoxynivalenol [3-ADON]
decreased sharply: [1]; PATU8988, 48 h treatment | [2]; 293T, 48 h treatment | [3]; HEEC, 48 h treatment

15-acetyl-deoxynivalenol [15-ADON]
decreased sharply: [1]; PATU8988, 48 h treatment | [2]; 293T, 48 h treatment | [3]; HEEC, 48 h treatment

HT-2 toxin
decreased sharply: [1] | [2] | [3]

deoxynivalenol [DON]
decreased sharply: [1]; PATU8988, 48 h treatment | [2]; 293T, 48 h treatment | [3]; HEEC, 48 h treatment

fusarenon-X [FUS-X]
decreased sharply: [1] | [2] | [3]; HEEC, 48 h treatment
